Measurements reported in patent US8741945B2, “Compounds” (Novacta Biosystems Limited, priority 2009, dated 2014).
Where “and” joins values, the source holds several entries; their conditions need not be identical. Identical values can stand only once.

Experiments:
[1] = system: C. difficile strain 4013; assay: Hamster model of C. difficile associated cecitis (clindamycin induced); type: in vivo; settings: three times daily at 10 mg/kg/day, 5-day dosing period, groups of 6
Method: The in vivo efficacy of the compounds of the invention in the treatment of C. difficile infections was evaluated in the standard animal model for CDAD, clindamycin induced cecitis in the hamster.
Groups of 6 animals were dosed with approximately 10^7 cells of C. difficile strain 4013 and 24 hours later with a subcutaneous dose of 10 mg/kg clindamycin phosphate. After a further 24 hours, the groups were then treated either with vehicle, vancomycin or with the compound of Example 1 three times daily at 10 mg/kg/day.

[2] = system: Clostridium difficile strains; assay: Susceptibility testing (MIC) by two-fold serial agar dilution, Wilkins-Chalgren Anaerobe agar, anaerobic; type: cell-based
Method: Susceptibility testing for Clostridium difficile strains was performed by two-fold serial antibiotic dilutions in Wilkins-Chalgren Anaerobe agar under anaerobic conditions. Vancomycin was included as a comparator drug. C. difficile cultures were inoculated onto pre-reduced Braziers (C.C.E.Y.) agar plates and grown at 37° C. for 48 hours under anaerobic conditions. Two to three colonies of the 48 hours cultures were inoculated into 5 ml of pre-reduced Schaedlers Broth and grown at 37° C. for 24 hours under anaerobic conditions. This culture was diluted with pre-reduced 0.9% NaCl to achieve the turbidity of the 0.5 McFarland standard and applied to the drug containing plates at a final inoculum of 10^5 cfu/spot. Drug-free growth control plates were included. The plates were incubated in the anaerobic chamber at 37° C. for 48 hours and examined for growth.

[3] = Tolerability in the Syrian hamster; type: in vivo; settings: 50 mg/kg/day orally
[4] = 7-day toxicity experiment in a rat model; type: in vivo
Method: The compound of Example 1 was tested in a 7-day toxicity experiment in a rat model. One study used 50 mg/kg/day of material administered intravenously for 7 days. The other study used 200 mg/kg/day of material administered orally for 7 days.

[5] = Stability to enzymatic digestion in simulated intestinal fluid (SIF); type: in vitro ADME; settings: 37° C., HPLC quantification (FIG. 1)
Method: Nisin and the compound of Example 1 were tested for their susceptibility towards enzymatic digestion in the intestine using a simulated intestinal fluid (SIF). The SIF was based on the standard USP solutions for simulated intestinal fluids and its activity was confirmed against Bovine Serum Albumin (Hilger et al, Clin. Exp. Immunol. 2001, 123, 387-94). The compounds were incubated in SIF at 37° C. and their concentrations quantified by analytical HPLC (UV detection at 210 nm using the conditions outline in Table 1).

[6] = 50 mg/kg/day intravenously for 7 days
[7] = 200 mg/kg/day orally for 7 days

CN[C@H](CC(C)C)C(=O)N[C@H]1C(=O)N[C@@H](CC(N)=O)C(=O)N[C@H]2C(=O)N[C@H]3C(=O)N[C@H](C(=O)N[C@H](C(=O)O)c4cc(O)cc(O)c4-c4cc3ccc4O)[C@H](O)c3ccc(c(Cl)c3)Oc3cc2cc(c3O[C@@H]2O[C@H](CO)[C@@H](O)[C@H](O)[C@H]2O[C@H]2C[C@](C)(N)[C@H](O)[C@H](C)O2)Oc2ccc(cc2Cl)[C@H]1O [vancomycin, reference compound]
survival [1]: survived for the duration of the entire 5-day dosing period

Deoxyactagardine B (3-amino-1-propylamide monocarboxamide) [Example 5]
MIC ([2]; C. diff strain 027SM): 2, 2 μg/ml
MIC ([2]; C. diff strain 630, listed as Eg 5): 1, 1 μg/ml and 2, 2 μg/ml
MIC ([2]; C. diff strain 19126, listed as Eg 5): 2, 2 μg/ml and 1, 1 μg/ml
MIC ([2]; C. diff strain 37779, listed as Eg 5): 1, 1 μg/ml and 2, 2 μg/ml
MIC ([2]; C. diff strain B32): 2, 2 μg/ml
MIC ([2]; C. diff strain E16, listed as Eg 5): 1 µg/mL and 2 µg/mL
MIC ([2]; C. diff strain E101): 2, 2 μg/ml
MIC ([2]; C. diff strain P24): 2, 2 μg/ml
MIC ([2]; C. diff strain P62): 2, 2 μg/ml

CCC(C)[C@@H]1NC(=O)[C@@H]2NC(=O)[C@H](CC(C)C)NC(=O)[C@H](NC(=O)C3CSC[C@H](N)C(=O)N[C@@H](CO)C(=O)NCC(=O)N[C@@H](Cc4c[nH]c5ccccc45)C(=O)N[C@@H](C(C)C)C(=O)N3)[C@H](C)SC[C@H](NC(=O)[C@H](CCC(=O)O)NC1=O)C(=O)NCC(=O)N[C@@H]1C(=O)N[C@@H](CC(C)C)C(=O)N[C@@H](C(C)C)C(=O)N[C@@H](CS[C@H]2C)C(=O)N[C@@H](C)C(=O)N[C@H](C(=O)NCCCCCCCN)CS[C@H]1C (some centres unmarked) [Example 1, Deoxyactagardine B (7-amino-1-heptylamide monocarboxamide)]
survival [1]: survived for the duration of the entire 5-day dosing period
tolerability [3]: tolerated without obvious signs of toxicity
MIC ([2]; C. diff strain 027Can, listed as Eg 1): 0.5, 0.5 μg/ml and 1, 1 μg/ml and 1 μg/ml and 0.5 μg/ml
MIC ([2]; C. diff strain 027SM): 1, 1 μg/ml
MIC ([2]; C. diff strain 630, listed as Eg 1): 0.5, 0.5 μg/ml and 0.5 μg/ml and 1 μg/ml and 1, 1 μg/ml
MIC ([2]; C. diff strain 19126, listed as Eg 1): 1, 1 μg/ml and 0.5 μg/ml and 1 μg/ml
MIC ([2]; C. diff strain 37779, listed as Eg 1): 1, 1 μg/ml and 1 μg/ml and 0.5 μg/ml
MIC ([2]; C. diff strain B32): 1, 1 μg/ml
MIC ([2]; C. diff strain E16, listed as Eg 1): 1 µg/mL and 2 µg/mL
MIC ([2]; C. diff strain E101): 1, 1 μg/ml
MIC ([2]; C. diff strain P24): 1, 1 μg/ml
MIC ([2]; C. diff strain P62, listed as Eg 1): 2 µg/mL and 1 µg/mL
activity (MIC) ([2]; against many common strains of C. difficile): ≤ 1 µg/mL
necropsy [4, 6]: no organ damage
toxicological effects [4, 6]: No significant toxicological effects
necropsy [4, 7]: no organ damage
toxicological effects [4, 7]: No significant toxicological effects
stability in SIF [5]: essentially stable

Deoxyactagardine B (12-amino-1-dodecylamide monocarboxamide) [Example 8]
MIC ([2]; C. diff strain 027Can): 1, 1 μg/ml
MIC ([2]; C. diff strain 027SM): 2, 2 μg/ml
MIC ([2]; C. diff strain 630, listed as Eg8): 0.5, 0.5 μg/ml and 1, 1 μg/ml
MIC ([2]; C. diff strain 19126, listed as Eg8): 1, 1 μg/ml and 2, 2 μg/ml
MIC ([2]; C. diff strain 37779, listed as Eg8): 1, 1 μg/ml and 1 μg/ml and 2 μg/ml
MIC ([2]; C. diff strain B32, listed as Eg8): 2 µg/mL and 1 µg/mL
MIC ([2]; C. diff strain E16): 2, 2 μg/ml
MIC ([2]; C. diff strain E101): 2, 2 μg/ml
MIC ([2]; C. diff strain P24, listed as Eg8): 2 µg/mL and 1 µg/mL
MIC ([2]; C. diff strain P62): 2, 2 μg/ml
